Results on 18 compounds are retold here after patent US20130131043A1, “PYRAZOLE COMPOUNDS AS JAK INHIBITORS” (priority 2010, published 2013).

For orientation: IC50 means the concentration that gives 50% inhibition. Higher therefore signals lower potency.

The target of one assay is T1, JAK2 (Homo sapiens, UniProt O60674).
T1 construct: endogenous in cells; host or cells: Molt4 (ATCC CRL-1582) and Ramos (ATCC CRL-1596) cell lysate; mixed Molt4/Ramos lysate 1:2
Description: Kinobeads assay, JAK2 (competition binding in cell lysate, dot blot detection). As to conditions: mixed Molt4/Ramos lysate. Here is the method:
(§1) The compounds of the present invention as described in the previous examples were tested in a Kinobeads™ assay as described for ZAP-70 (WO-A 2007/137867). Briefly, test compounds (at various concentrations) and the affinity matrix with the immobilized aminopyrido-pyrimidine ligand 24 were added to cell lysate aliquots and allowed to bind to the proteins in the lysate sample. After the incubation time the beads with captured proteins were separated from the lysate. Bound proteins were then eluted and the presence of JAK2 and JAK3 was detected and quantified using specific antibodies in a dot blot procedure and the Odyssey infrared detection system. Dose response curves for individual kinases were generated and IC50 values calculated. Kinobeads™ assays for ZAP-70 (WO-A 2007/137867) and for kinase selectivity profiling (WO-A 2006/134056) have been previously described.
(§2) 5×DP buffer: 250 mM Tris-HCl pH 7.4, 25% Glycerol, 7.5 mM MgCl2, 750 mM NaCl, 5 mM Na3VO4; filter the 5×DP buffer through a 0.22 μm filter and store in aliquots at −80° C. The 5×DP buffer is diluted with H2O to 1×DP buffer containing 1 mM DTT and 25 mM NaF.
(§3) Stock solutions of test compounds were prepared in DMSO. In a 96 well plate 30 μL solution of diluted test compounds at 5 mM in DMSO were prepared. Starting with this solution a 1:3 dilution series (9 steps) was prepared. For control experiments (no test compound) a buffer containing 2% DMSO was used.
(§4) Molt4 cells (ATCC catalogue number CRL-1582) and Ramos cells (ATCC catalogue number CRL-1596) were grown in 1 L Spinner flasks (Integra Biosciences, #182101) in suspension in RPMI 1640 medium (Invitrogen, #21875-034) supplemented with 10% Fetal Bovine Serum (Invitrogen) at a density between 0.15×10^6 and 1.2×10^6 cells/mL. Cells were harvested by centrifugation, washed once with 1×PBS buffer (Invitrogen, #14190-094) and cell pellets were frozen in liquid nitrogen and subsequently stored at −80° C. Cells were homogenized in a Potter S homogenizer in lysis buffer: 50 mM Tris-HCl, 0.8% NP40, 5% glycerol, 150 mM NaCl, 1.5 mM MgCl2, 25 mM NaF, 1 mM sodium vanadate, 1 mM DTT, pH 7.5. One complete EDTA-free tablet (protease inhibitor cocktail, Roche Diagnostics, 1873580) per 25 mL buffer was added. The material was dounced 10 times using a mechanized POTTER S, transferred to 50 mL falcon tubes, incubated for 30 minutes on ice and spun down for 10 minutes at 20,000 g at 4° C. (10,000 rpm in Sorvall SLA600, precooled). The supernatant was transferred to an ultracentrifuge (UZ)-polycarbonate tube (Beckmann, 355654) and spun for 1 hour at 100.000 g at 4° C. (33.500 rpm in Ti50.2, precooled). The supernatant was transferred again to a fresh 50 mL falcon tube, the protein concentration was determined by a Bradford assay (BioRad) and samples containing 50 mg of protein per aliquot were prepared. The samples were immediately used for experiments or frozen in liquid nitrogen and stored frozen at −80° C.
(§5) Cell lysate (approximately 50 mg protein per plate) was thawed in a water bath at room temperature and then stored on ice. To the thawed cell lysate 1×DP 0.8% NP40 buffer containing protease inhibitors (1 tablet for 25 mL buffer; EDTA-free protease inhibitor cocktail; Roche Diagnostics 1873580) was added in order to reach a final protein concentration of 10 mg/mL total protein. The diluted cell lysate was stored on ice. Mixed Molt4/Ramos lysate was prepared by combining one volume of Molt4 lysate and two volumes of Ramos lysate (ratio 1:2).
(§6) Plates were sealed and incubated for 3 hours in a cold room on a plate shaker (Heidolph tiramax 1000) at 750 rpm. Afterwards the plate was washed 3 times with 230 μL washing buffer (1×DP 0.4% NP40). The filter plate was placed on top of a collection plate (Greiner bio-one, PP-microplate 96 well V-shape, 65120) and the beads were then eluted with 20 μL of sample buffer (100 mM Tris, pH 7.4, 4% SDS, 0.00025% bromophenol blue, 20% glycerol, 50 mM DTT). […]

The next assay addresses T2, JAK3 (Homo sapiens, UniProt P52333).
T2 construct: endogenous in cells; host or cells: Molt4 (ATCC CRL-1582) and Ramos (ATCC CRL-1596) cell lysate; mixed Molt4/Ramos lysate 1:2
T2 sequence (P52333 1-1124): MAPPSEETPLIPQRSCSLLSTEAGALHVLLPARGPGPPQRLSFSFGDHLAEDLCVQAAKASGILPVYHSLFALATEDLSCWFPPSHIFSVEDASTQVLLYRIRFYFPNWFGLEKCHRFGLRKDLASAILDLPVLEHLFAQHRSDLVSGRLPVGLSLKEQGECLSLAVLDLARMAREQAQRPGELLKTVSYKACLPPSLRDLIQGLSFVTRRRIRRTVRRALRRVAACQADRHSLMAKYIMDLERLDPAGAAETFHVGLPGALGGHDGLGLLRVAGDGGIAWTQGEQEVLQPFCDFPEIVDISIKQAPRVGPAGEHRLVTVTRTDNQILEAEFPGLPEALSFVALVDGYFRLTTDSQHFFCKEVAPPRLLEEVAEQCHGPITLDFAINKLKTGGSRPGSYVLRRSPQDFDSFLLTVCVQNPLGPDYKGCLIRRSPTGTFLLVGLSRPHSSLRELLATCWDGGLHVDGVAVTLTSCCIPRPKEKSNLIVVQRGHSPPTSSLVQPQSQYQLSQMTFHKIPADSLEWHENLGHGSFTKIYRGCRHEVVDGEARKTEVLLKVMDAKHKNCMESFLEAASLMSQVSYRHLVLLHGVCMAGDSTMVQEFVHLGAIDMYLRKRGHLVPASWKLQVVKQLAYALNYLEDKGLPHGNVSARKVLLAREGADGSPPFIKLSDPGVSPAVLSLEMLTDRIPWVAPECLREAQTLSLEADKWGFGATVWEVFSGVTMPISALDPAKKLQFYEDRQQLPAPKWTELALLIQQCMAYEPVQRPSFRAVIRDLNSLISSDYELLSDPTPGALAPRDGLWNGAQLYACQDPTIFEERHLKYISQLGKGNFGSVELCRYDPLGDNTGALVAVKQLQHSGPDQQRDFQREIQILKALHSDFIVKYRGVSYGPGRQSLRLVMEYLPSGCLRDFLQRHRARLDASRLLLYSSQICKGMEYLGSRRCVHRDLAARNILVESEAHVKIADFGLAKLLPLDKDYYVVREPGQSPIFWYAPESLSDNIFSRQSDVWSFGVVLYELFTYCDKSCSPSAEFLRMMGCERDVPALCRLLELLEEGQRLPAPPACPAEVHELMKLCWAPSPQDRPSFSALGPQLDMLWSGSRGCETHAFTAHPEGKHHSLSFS
In words: Kinobeads assay, JAK3 (competition binding in cell lysate, dot blot detection). As to conditions: mixed Molt4/Ramos lysate. On the procedure:
as §1, §2, §3, §4, §5, §6

Each structure is given as a SMILES string. A value given as a limit tells only on which side of the number the result lay.

T1 sequence (O60674 whole entry): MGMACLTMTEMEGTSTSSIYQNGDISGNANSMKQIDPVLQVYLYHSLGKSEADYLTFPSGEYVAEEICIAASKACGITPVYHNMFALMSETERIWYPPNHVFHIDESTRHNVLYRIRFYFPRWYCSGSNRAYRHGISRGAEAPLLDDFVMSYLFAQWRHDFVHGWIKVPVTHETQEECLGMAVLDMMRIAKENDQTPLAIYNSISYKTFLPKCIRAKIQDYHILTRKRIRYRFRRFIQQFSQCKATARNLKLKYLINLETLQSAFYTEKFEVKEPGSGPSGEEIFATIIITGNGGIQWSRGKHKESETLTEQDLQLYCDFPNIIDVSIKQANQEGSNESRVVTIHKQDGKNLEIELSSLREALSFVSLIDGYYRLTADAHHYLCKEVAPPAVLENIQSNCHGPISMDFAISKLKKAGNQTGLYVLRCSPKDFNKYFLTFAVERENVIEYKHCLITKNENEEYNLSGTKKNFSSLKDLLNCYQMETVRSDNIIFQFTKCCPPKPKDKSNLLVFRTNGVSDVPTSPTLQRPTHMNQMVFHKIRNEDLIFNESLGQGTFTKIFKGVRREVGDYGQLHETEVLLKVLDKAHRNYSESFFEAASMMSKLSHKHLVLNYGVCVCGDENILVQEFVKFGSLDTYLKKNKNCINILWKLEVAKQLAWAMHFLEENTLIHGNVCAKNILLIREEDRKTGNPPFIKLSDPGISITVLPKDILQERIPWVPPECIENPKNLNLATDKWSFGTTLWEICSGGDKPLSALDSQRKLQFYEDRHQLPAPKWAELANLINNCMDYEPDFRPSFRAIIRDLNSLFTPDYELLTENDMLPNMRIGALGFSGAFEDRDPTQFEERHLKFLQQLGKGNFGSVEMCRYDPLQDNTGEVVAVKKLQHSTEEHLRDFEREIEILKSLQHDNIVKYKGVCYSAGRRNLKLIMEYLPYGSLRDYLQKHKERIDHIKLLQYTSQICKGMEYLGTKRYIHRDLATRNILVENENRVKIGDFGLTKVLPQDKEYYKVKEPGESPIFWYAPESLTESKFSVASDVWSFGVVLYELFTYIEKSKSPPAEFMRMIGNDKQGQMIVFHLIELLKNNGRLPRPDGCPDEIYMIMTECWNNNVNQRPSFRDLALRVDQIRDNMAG

As to `CN1CCCC(Cn2ncc3cnc(Nc4cnn(C)c4)nc32)C1` (stereo not drawn) [Example 6, N-(1-methyl-1H-pyrazol-4-yl)-1-((1-methylpiperidin-3-yl)methyl)-1H-pyrazolo[3,4-d]pyrimidin-6-amine], the results for the IC50 at JAK2 and on JAK3 were 1 to 10 µM and under 0.1 µM, respectively.
The corresponding values for `Cn1cc(Nc2ncc3cnn(CC4CCCN(CCO)C4)c3n2)cn1` (stereo not drawn) [Example 66, 2-(3-((6-((1-methyl-1H-pyrazol-4-yl)amino)-1H-pyrazolo[3,4-d]pyrimidin-1-yl)methyl)piperidin-1-yl)ethanol] are 1 to 10 µM and under 0.1 µM.
For the compound `Cn1cc(Nc2ncc3cnn(CC4CCN(S(=O)(=O)C5CC5)C4)c3n2)cn1` (stereo not drawn) [Example 43, 1-((1-(cyclopropylsulfonyl)pyrrolidin-3-yl)methyl)-N-(1-methyl-1H-pyrazol-4-yl)-1H-pyrazolo[3,4-d]pyrimidin-6-amine], the IC50 at JAK2 was over 10 µM; at JAK3, 0.1 to 1 µM.
On to `Cn1cc(Nc2ncc3cnn(C4CCCCCC4)c3n2)cn1` [Example 20, 1-Cycloheptyl-N-(1-methyl-1H-pyrazol-4-yl)-1H-pyrazolo[3,4-d]pyrimidin-6-amine], for which the IC50 on JAK2 is 1 to 10 µM; at JAK3 it was under 0.1 µM.
With `CC1CCCC1n1ncc2cnc(Nc3cnn(C)c3)nc21` (stereo not drawn) [Example 14, N-(1-Methyl-1H-pyrazol-4-yl)-1-(2-methylcyclopentyl)-1H-pyrazolo[3,4-d]pyrimidin-6-amine], the IC50 is over 10 µM at JAK2 and 0.1 to 1 µM on JAK3.
For `Cn1cc(Nc2ncc3cnn(CCCNS(C)(=O)=O)c3n2)cn1` [Example 2, N-(3-(6-(1-methyl-1H-pyrazol-4-ylamino)-1H-pyrazolo[3,4-d]pyrimidin-1-yl)propyl)methanesulfonamide] the same measures were 1 to 10 µM and 0.1 to 1 µM.
The corresponding values for `C[C@H]1CCC[C@H](n2ncc3cnc(Nc4cnn(C)c4)nc32)C1` (racemic) [Example 19, Rac-trans-N-(1-methyl-1H-pyrazol-4-yl)-1-(3-methylcyclohexyl)-1H-pyrazolo[3,4-d]pyrimidin-6-amine] are 1 to 10 µM and under 0.1 µM.
As to `Cn1cc(Nc2ncc3cnn(CC4CCCN(C(=O)CCS(C)(=O)=O)C4)c3n2)cn1` (stereo not drawn) [Example 23, 1-(3-((6-((1-methyl-1H-pyrazol-4-yl)amino)-1H-pyrazolo[3,4-d]pyrimidin-1-yl)methyl)piperidin-1-yl)-3-(methylsulfonyl)propan-1-one], the IC50 was 1 to 10 µM on JAK2 and under 0.1 µM at JAK3.
For `CC1CCCC(n2ncc3cnc(Nc4cnn(C)c4)nc32)C1` (stereo not drawn) [Example 13, N-(1-methyl-1H-pyrazol-4-yl)-1-(3-methylcyclohexyl)-1H-pyrazolo[3,4-d]pyrimidin-6-amine] the same measures were over 10 µM and 0.1 to 1 µM.
In the case of `CNC(=O)CN1CCCC(Cn2ncc3cnc(Nc4cnn(C)c4)nc32)C1` (stereo not drawn) [Example 64, N-methyl-2-(3-((6-((1-methyl-1H-pyrazol-4-yl)amino)-1H-pyrazolo[3,4-d]pyrimidin-1-yl)methyl)piperidin-1-yl)acetamide], the results for the IC50 at JAK2 and on JAK3 were 1 to 10 µM and under 0.1 µM, respectively.
Consider `Cn1cc(Nc2ncc3cnn(C4CCN(C(=O)CC#N)CC4)c3n2)cn1` [Example 24, 3-(4-(6-((1-methyl-1H-pyrazol-4-yl)amino)-1H-pyrazolo[3,4-d]pyrimidin-1-yl)piperidin-1-yl)-3-oxopropanenitrile], for which the figures for the IC50 at JAK2 and at JAK3 were 1 to 10 µM and 0.1 to 1 µM, respectively.
Take `Cn1cc(Nc2ncc3cnn(C4CCNCC4)c3n2)cn1` [Example 12, N-(1-methyl-1H-pyrazol-4-yl)-1-(piperidin-4-yl)-1H-pyrazolo[3,4-d]pyrimidin-6-amine]: the IC50 at JAK2 was over 10 µM; on JAK3, 1 to 10 µM.
On to `CN(C)C(=O)N1CCCC(Cn2ncc3cnc(Nc4cnn(C)c4)nc32)C1` (stereo not drawn) [Example 65, N,N-dimethyl-3-((6-((1-methyl-1H-pyrazol-4-yl)amino)-1H-pyrazolo[3,4-d]pyrimidin-1-yl)methyl)piperidine-1-carboxamide], for which the IC50 on JAK2 was 1 to 10 µM; on JAK3, under 0.1 µM.
The corresponding values for `Cn1cc(Nc2ncc3cnn(CC4CCCN(S(=O)(=O)C5CC5)C4)c3n2)cn1` (stereo not drawn) [Example 33, 1-((1-(cyclopropylsulfonyl)piperidin-3-yl)methyl)-N-(1-methyl-1H-pyrazol-4-yl)-1H-pyrazolo[3,4-d]pyrimidin-6-amine] are 1 to 10 µM and under 0.1 µM.
Take `Cn1cc(Nc2ncc3cnn(C4CCCNC4)c3n2)cn1` (stereo not drawn) [Example 10, N-(1-methyl-1H-pyrazol-4-yl)-1-(piperidin-3-yl)-1H-pyrazolo[3,4-d]pyrimidin-6-amine]: the IC50 at JAK2 is over 10 µM; at JAK3, 1 to 10 µM.
For `CS(=O)(=O)N1CCCC(Cn2ncc3cnc(Nc4cnn(CCO)c4)nc32)C1` (stereo not drawn) [Example 39, 2-(4-((1-((1-(methylsulfonyl)piperidin-3-yl)methyl)-1H-pyrazolo[3,4-d]pyrimidin-6-yl)amino)-1H-pyrazol-1-yl)ethanol] the same measures were 1 to 10 µM and under 0.1 µM.
For `Cn1cc(Nc2ncc3cnn(CC4CCCN(S(C)(=O)=O)C4)c3n2)cn1` (stereo not drawn) [Example 1] the same measures were 1 to 10 µM and under 0.1 µM.
For `N#CCN1CCCC(Cn2ncc3cnc(Nc4cnn(CC(F)F)c4)nc32)C1` (stereo not drawn) [Example 60, 2-(3-((6-((1-(2,2-difluoroethyl)-1H-pyrazol-4-yl)amino)-1H-pyrazolo[3,4-d]pyrimidin-1-yl)methyl)piperidin-1-yl)acetonitrile] the same measures were 1 to 10 µM and 0.1 to 1 µM.
